Like-named read-outs stand apart in the source and are kept apart here.
Tests used:
[1] = test system: Glioblastoma cell line U87 cells; experiment: MTT cell viability assay, glioblastoma cells; assay type: cell-based; conditions: U87 glioblastoma cells, MTT after three days
Method: (§1) Different concentration of compounds were added to the cells. Three days later, a MTT assay (Sigma) was performed to monitor cell viability.
(§2) In this example, samples of glioblastoma cells (U87) and astrocyte cells (non-cancer control) were exposed various disclosed compounds to determine the effectiveness of the compounds for inhibiting cell growth.

[2] = test system: Immortalized human astrocytes; experiment: MTT cell viability assay, astrocytes (non-cancer control); assay type: cell-based; conditions: immortalized human astrocytes, MTT after three days
Method: as §1, §2

Row | SMILES | IC50 ([1]; Homo sapiens, U-87 MG, 72 h) [µM] | IC50 ([2]; Homo sapiens, Astrocyte, 72 h) [µM] | IC50 [1] [µM] | IC50 ([2]; read-out: IC50 (astrocyte)) [µM]
1 | Cc1nccnc1N1CCCC(CO)(CCCc2ccccc2)C1 (stereo not shown) [PLH1234, (1-(3-Methylpyrazin-2-yl)-3-(3-phenylpropyl)piperidin-3-yl)methanol] | 20 | 51.8 | – | –
2 | O=C(c1sc2cc(F)ccc2c1Cl)N1CCCC(CO)(CCCc2ccccc2)C1 (stereo not shown) [PLH1254] | 16 | 49 | – | –
3 | Nc1nc(N)nc(N2CCCC(CO)(CCCc3ccccc3)C2)n1 (stereo not shown) [PLH1258, (1-(4,6-Diamino-1,3,5-triazin-2-yl)-3-(3-phenylpropyl)piperidin-3-yl)methanol] | 3.6 | > 80 | – | –
4 | CC(C)(C)OC(=O)N1CCCC(C(=O)NCc2ccccc2)C1 (stereo not shown) [PLH1273] | > 80 | > 80 | – | –
5 | Cc1nc(N(C)C)nc(N2CCCC(CO)(CCCc3ccccc3)C2)c1C (stereo not shown) [PLH1276, (1-(2-(Dimethylamino)-5,6-dimethylpyrimidin-4-yl)-3-(3-phenylpropyl)piperidin-3-yl)methanol] | 19 | > 80 | – | –
6 | Cc1c(Cl)ncnc1N1CCCC(CO)(CCCc2ccccc2)C1 (stereo not shown) [PLH1279, (1-(6-Chloro-5-methylpyrimidin-4-yl)-3-(3-phenylpropyl)piperidin-3-yl)methanol] | 8 | > 80 | – | –
7 | Nc1nccc(N2CCCC(C(=O)NCCc3ccccc3)C2)n1 (stereo not shown) [PLH1285, 1-(2-Aminopyrimidin-4-yl)-N-phenethylpiperidine-3-carboxamide] | 17 | > 80 | – | –
8 | Nc1nccc(N2CCCC(C(=O)NCc3ccccc3)C2)n1 (stereo not shown) [PLH1290, 1-(2-Aminopyrimidin-4-yl)-N-benzylpiperidine-3-carboxamide] | > 80 | > 80 | – | –
9 | OCC1(CCCc2ccccc2)CCCN(c2ccccn2)C1 (stereo not shown) [PLH1291, (3-(3-Phenylpropyl)-1-(pyridin-2-VI)piperidin-3-VI)methanol] | 14 | > 80 | – | –
10 | O=Cc1c(Cl)ncnc1N1CCCC(CO)(CCCc2ccccc2)C1 (stereo not shown) [PLH1293] | 8 | 18 | – | –
11 | COc1c(Cl)ncnc1N1CCCC(CO)(CCCc2ccccc2)C1 (stereo not shown) [PLH1302, (1-(6-Chloro-5-methoxypyrimidin-4-yl)-3-(3-phenylpropyl)piperidin-3-yl)methanol] | ~2.5 | ~20 | 2.3 | 10
12 | Nc1nccc(N2CCCC(CO)(CCc3ccccc3)C2)n1 (stereo not shown) [PLH1304, (1-(2-Aminopyrimidin-4-yl)-3-phenethylpiperidin-3-yl)methanol] | 3.83 | ~80 | – | –
13 | CCc1ncnc(N2CCCC(CO)(CCCc3ccccc3)C2)c1F (stereo not shown) [PLH2002, (1-(6-Ethyl-5-fluoropyrimidin-4-yl)-3-(3-phenylpropyl)piperidin-3-yl)methanol] | 1.5 | 1.1 | – | –
14 | Nc1ccnc(N2CCCC(CO)(CCCc3ccccc3)C2)n1 (stereo not shown) [PLH2006, (1-(4-Aminopyrimidin-2-yl)-3-(3-phenylpropyl)piperidin-3-yl)methanol] | > 80 | > 80 | – | –
15 | Nc1nccc(N2CCCC(COCc3ccccc3)C2)n1 (stereo not shown) [PLH2027, 4-(3-((Benzyloxy)methyl)piperidin-1-yl)pyrimidin-2-amine] | ~50 | ~80 | – | –
16 | Nc1nccc(N2CCC[C@H](COCc3ccccc3)C2)n1 [PLH2032, (S)-4-(3-((Benzyloxy)methyl)piperidin-1-yl)pyrimidin-2-amine] | 4.3 | ~40 | – | –
17 | Nc1nccc(N2CCC[C@@H](COCc3ccccc3)C2)n1 [PLH2040, (R)-4-(3-((Benzyloxy)methyl)piperidin-1-yl)pyrimidin-2-amine] | 2.8 | > 80 | – | –
18 | OCC1(CCCc2ccccc2)CCCN(c2ccncn2)C1 (stereo not shown) [PLH2062, (3-(3-Phenylpropyl)-1-(pyrimidin-4-VI)piperidin-3-yl)methanol] | ~30 | > 80 | – | –
19 | Cc1c(-c2ccccc2)ncnc1N1CCCC(CO)(CCCc2ccccc2)C1 (stereo not shown) [PLH2063, (1-(5-methyl-6-phenylpyrimidin-4-yl)-3-(3-phenylpropyl)piperidin-3-yl)methanol] | ~80 | ~80 | – | –
